What was measured:
human recombinant HDAC 2 = biological target: T1, human recombinant HDAC 2 (Homo sapiens, UniProt Q92769); assay: HDAC inhibition assay (Fluor de Lys), HDAC2; format: biochemical; details: inhibitor-protein incubation 2 hours, reaction 1 h 30 min, 37° C.
T1 construct: purchased BPS Bioscience 50002
Method: All assays were carried out in the assay buffer: 50 mM Tris/Cl, pH 8.0, 137 mM NaCl, 2.7 mM KCl, 1 mM MgCl2).
Reactions were carried out in a 96-wells microplate (Corning 96 well Flat Bottom Non-binding surface (black) ref. 3651).
Potential inhibitors were added after five fold serial dilutions in DMSO. Final DMSO concentration in the assay microplate was kept at 2%.
Afterwards, human recombinant HDAC1, HDAC 2 or HDAC 8 were added up to […] respectively in assay buffer. When necessary, the mixture was incubated at room temperature prior the addition of substrate.
Total reaction volume of 50 μl. Human recombinant HDACs could be acquired from commercial sources (HDAC1: ref. #50001, BPS Bioscience™; HDAC 2: ref. #50002, BPS Bioscience™; HDAC 8: ref. #50008, BPS Bioscience™).
Reactions were stopped with 50 μl Developer (KI-105 Fluor de Lys™, BIOMOL®) with 2 μmol/L trichostatin A (TSA, final concentration 1 μmol/L). After 20 minutes at 37° C., fluorescence (excitation 360 nm, emission 460 nm) was measured using an Infinite F200 fluorimeter (Tecan). Background was determined in reactions using substrate in the absence of enzyme.
IC50 values are defined as the compound concentration at which the deacetylase activity is 50% inhibited. In these assays the following grading was used (I: IC50≦10 μM; II: 10 μM<IC50≦100 μM; III: 100 μM<IC50≦1 mM) The results obtained are summarized in Table 4.

[1] = tested on: human colon cancer cell line HCT116; assay: alamarBlue viability assay, HCT116; format: cell-based; details: HCT-116, 72 hours, dose required to inhibit cell growth by 50%
Method: The human colon cancer cell line HCT116 and the human breast cancer cell line MCF-7 were from the American Type Culture Collection (ATCC; CCL-247 and HTB-22, respectively).
The HCT116 cell line was maintained in DMEM GlutaMAX (Invitrogen) supplemented with 10% fetal calf serum and the MCF7 cell line was maintained in RPMI1640 GlutaMAX (Invitrogen) containing 1 mM sodium piruvate and 10% fetal calf serum.
Cells were grown in a humidified incubator at 37° C. in 5% CO2.
Cells were plated in 96-well plates at a density of 6000 cells/well in 100 μl medium 24 h before addition of drugs. […] To do so, a drugs-dilution plate at twice the screening concentrations was prepared. 72 hours later, alamarBlue (Biosource, Invitrogen) viability assay was performed following manufacturer's protocol. In brief, alamarBlue diluted in media was added to cells to have a 5% solution. Cells were incubated at 37° C., 3 hours and at room temperature, 30 min. Cells with no drug and, cells with no drug and lysed with triton X-100 were used as controls. Fluorescence was monitored at 530 nm excitation and 590 nm emission wavelengths. Results were quantified using Infinite F200 Microplate Reader (Tecan Group, Ltd.). EC50 were calculated as the dose of drugs required to inhibit cell growth by 50%, with Origin 7.0 computer program.

T1 sequence (Q92769 whole entry): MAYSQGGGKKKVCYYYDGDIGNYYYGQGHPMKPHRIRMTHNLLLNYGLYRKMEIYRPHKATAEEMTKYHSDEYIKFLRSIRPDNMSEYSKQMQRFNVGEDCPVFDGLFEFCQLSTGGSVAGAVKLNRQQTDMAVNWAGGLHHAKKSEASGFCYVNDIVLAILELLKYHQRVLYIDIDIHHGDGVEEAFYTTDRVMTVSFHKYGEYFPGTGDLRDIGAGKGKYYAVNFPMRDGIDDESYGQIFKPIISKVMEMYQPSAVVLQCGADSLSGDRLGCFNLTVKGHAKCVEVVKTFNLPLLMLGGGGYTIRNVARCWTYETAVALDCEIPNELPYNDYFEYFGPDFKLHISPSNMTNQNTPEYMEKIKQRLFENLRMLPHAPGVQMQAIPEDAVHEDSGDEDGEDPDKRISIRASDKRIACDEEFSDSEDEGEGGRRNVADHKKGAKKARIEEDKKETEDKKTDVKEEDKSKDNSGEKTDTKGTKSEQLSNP

**Q.** How did the IC50 (human recombinant HDAC 2) turn out when `O=C(O)C(CCCc1ccccc1)CCC1CNc2ccccc21` (mixture of isomers) [Example 53, 2-[2-(2,3-Dihydro-1H-indol-3-yl)ethyl]-5-phenylpentanoic acid] was run?
**A.** Its IC50 is 10 to 100 µM.

**Q.** With `O=C(O)C(CCCCc1ccccc1)CCc1ccccc1` (centres unmarked) [Example 14, 6-Phenyl-2-(2-phenylethyl)hexanoic acid] as the molecule, how does the EC50 [1] read?
**A.** The EC50 was 256 µM.

**Q.** And the IC50 (human recombinant HDAC 2)?
**A.** Its IC50 is 10 to 100 µM.

**Q.** `CC(=O)OCOC(=O)C(CCc1ccccc1)Cc1ccccc1` (centres unmarked) [Example 15, (Acetyloxy)methyl 2-benzyl-4-phenylbutanoate] was tested. Which EC50 [1] did it give?
**A.** The EC50 was 85 µM.

**Q.** Which EC50 [1] does the source give for `CC(=O)OCOC(=O)C(CCCc1ccccc1)CCc1ccccc1` (centres unmarked) [Example 16, (Acetyloxy)methyl 5-phenyl-2-(2-phenylethyl)pentanoate] here?
**A.** The EC50 was 267 µM.

**Q.** Which EC50 [1] does the source give for `COc1ccc(NS(=O)(=O)c2cccc(CCCC(CCc3ccccc3)C(=O)OCOC(C)=O)c2)cc1OC` (centres unmarked) [Example 17, (Acetyloxy)methyl 5-(3-{[(3,4-dimethoxyphenyl)amino]sulfonyl}phenyl)-2-(2-phenylethyl)pentanoate] here?
**A.** The EC50 was 62 µM.

**Q.** `CC(=O)OCOC(=O)C(CCCc1cccc(S(=O)(=O)Nc2ccc(C)cc2)c1)CCc1ccccc1` (centres unmarked) [Example 18] was tested. Which EC50 [1] did it give?
**A.** The EC50 was 95 µM.

**Q.** Which results are given for `Cc1ccc(S(=O)(=O)Nc2cccc(CCCC(CCc3ccccc3)C(=O)O)c2)cc1` (centres unmarked) [Example 25, 5-(3′-{[(4-Methylphenyl)sulfonyl]amino}phenyl)-2-(2-phenylethyl)pentanoic acid]?
**A.** EC50 [1]: 121 µM; IC50 (human recombinant HDAC 2): 10 to 100 µM

**Q.** Which IC50 (human recombinant HDAC 2) does the source give for `Nc1ccc(CCC(CCCc2ccccc2)C(=O)O)cc1` (centres unmarked) [Example 32, 2-[2-(4-Aminophenyl)ethyl]-5-phenylpentanoic acid] here?
**A.** The IC50 was 100 to 1000 µM.

**Q.** Which EC50 [1] does the source give for `O=C(O)C(CCCc1ccccc1)CCc1ccc(NCc2ccccc2)cc1` (centres unmarked) [Example 33, 2-[2-(4-(Benzylamino)phenyl)ethyl]-5-phenylpentanoic acid] here?
**A.** The EC50 was 71.4 µM.

**Q.** What about the IC50 (human recombinant HDAC 2) of the same molecule?
**A.** The IC50 was 10 to 100 µM.

**Q.** For `CNS(=O)(=O)c1cccc(CCCC(CCc2ccccc2)C(=O)OC)c1` (centres unmarked) [Example 42, Methyl 5-(3-[(methylamino)sulfonyl]phenyl)-2-(2-phenylethyl)pentanoate], which EC50 [1] is on record?
**A.** The EC50 was 56 µM.

**Q.** With `CCc1ccc(CCC(CCCc2ccc(S(=O)(=O)Nc3ccccc3)cc2)C(=O)OC)cc1` (centres unmarked) [Example 47, Methyl 5-[4-(anilinosulfonyl)phenyl]-2-[2-(4-ethylphenyl)ethyl]pentanoate] as the molecule, how does the EC50 [1] read?
**A.** Its EC50 is 23 µM.

**Q.** With `O=C(O)C(CCCc1ccccc1)CCc1ccc(O)cc1` (centres unmarked) [Example 54, 2-[2-(4-hydroxyphenyl)ethyl]-5-phenylpentanoic acid] as the molecule, how does the IC50 (human recombinant HDAC 2) read?
**A.** The IC50 was 100 to 1000 µM.

**Q.** For `CC(=O)OCOC(=O)C(CCCc1ccccc1)CCc1ccc(OCc2ccccc2)cc1` (centres unmarked) [Example 56, (Acetyloxy)methyl 2-[2-(4-benzyloxyphenyl)ethyl]-5-phenyl pentanoate], which EC50 [1] is on record?
**A.** The EC50 was 56 µM.

**Q.** `O=C(O)C(CCCc1ccccc1)CCc1ccc(OCc2cccnc2)cc1` (centres unmarked) [Example 59, 2-{2-[4-(Pyridin-3-ylmethoxy)phenyl]ethyl}-5-phenyl pentanoic acid] was tested. Which IC50 (human recombinant HDAC 2) did it give?
**A.** The IC50 was 10 to 100 µM.

**Q.** For `O=C(O)C(CCCc1ccccc1)CCc1ccc(OCc2ccncc2)cc1` (centres unmarked) [Example 60, 2-{2-[4-(Pyridin-4-ylmethoxy)phenyl]ethyl}-5-phenylpentanoic acid], which IC50 (human recombinant HDAC 2) is on record?
**A.** Its IC50 is 100 to 1000 µM.

**Q.** How did the IC50 (human recombinant HDAC 2) turn out when `O=C(O)C(CCCc1ccccc1)CCc1ccc(Oc2ccc(F)cc2)cc1` (centres unmarked) [Example 64, 2-{2-[4-(4-Fluorophenoxy)phenyl]ethyl}-5-phenylpentanoic acid] was run?
**A.** The IC50 was 100 to 1000 µM.

**Q.** Which IC50 (human recombinant HDAC 2) does the source give for `O=C(O)C(CCCc1ccccc1)CCc1ccc(Oc2ccccc2)cc1` (centres unmarked) [Example 65, 2-{2-[4-Phenoxyphenyl]ethyl}-5-phenylpentanoic acid] here?
**A.** The IC50 was 100 to 1000 µM.

**Q.** How did the IC50 (human recombinant HDAC 2) turn out when `O=C(O)C(CCCc1ccccc1)CCc1ccc(Oc2ccc(C(F)(F)F)cc2)cc1` (centres unmarked) [Example 66, 2-{2-[4-(4-Trifluoromethylphenoxy)phenyl]ethyl}-5-phenyl pentanoic acid] was run?
**A.** Its IC50 is 100 to 1000 µM.

**Q.** With `COc1ccc(Oc2ccc(CCC(CCCc3ccccc3)C(=O)O)cc2)cc1` (centres unmarked) [Example 67, 2-{2-[4-(4-Methoxyphenoxy)phenyl]ethyl}-5-phenylpentanoic acid] as the molecule, how does the IC50 (human recombinant HDAC 2) read?
**A.** The IC50 was 10 to 100 µM.

**Q.** Which IC50 (human recombinant HDAC 2) does the source give for `O=C(O)C(CCc1ccccc1)SCCc1ccccc1` (centres unmarked) [Example 68, 4-Phenyl-2-[(2-phenylethyl)thio]butanoic acid] here?
**A.** Its IC50 is 100 to 1000 µM.
